Where a SMILES comes first, the peptide text is derived from it.
Experiments:
Experiment in all cases: Phosphatase assay with ENDY(P)INASL as substrate
Format in all cases: biochemical
TCΔC11.PTP = molecular target: T1, TCΔC11.PTP (Homo sapiens, UniProt P17706)
T1 construct: both the wild type and truncated forms of the T-cell phosphatase; made in house; host or cells: Sf9 cells (baculovirus)
T1 sequence (P17706 1-317 limits assumed): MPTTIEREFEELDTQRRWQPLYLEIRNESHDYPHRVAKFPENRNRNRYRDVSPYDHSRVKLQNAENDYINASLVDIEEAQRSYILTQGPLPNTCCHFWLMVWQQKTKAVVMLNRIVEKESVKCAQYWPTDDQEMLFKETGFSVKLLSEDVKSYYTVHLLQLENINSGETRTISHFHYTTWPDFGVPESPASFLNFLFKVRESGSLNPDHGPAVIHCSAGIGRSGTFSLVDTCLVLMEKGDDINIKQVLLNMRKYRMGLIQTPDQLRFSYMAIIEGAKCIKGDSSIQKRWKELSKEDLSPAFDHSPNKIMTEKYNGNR
Protocol: (§1) The tyrosine phosphatases TC.PTP, TCΔC11.PTP, and RPTPα were purified from infected Sf9 cells as described recently (Zander et al., Biochemistry 30: 6964-6970, 1991; Daum et al., J. Biol. Chem. 266: 12211-12215, 1991). The 37 kDa form of PTP1B and CD45 were purified from placenta and spleen, respectively (according to Tonks et al., J. Biol. Chem. 263: 6722-6730, 1988; Tonks et al., Biochemistry 27: 8695-8701, 1988).
(§2) Phosphatase assays with ENDY(P)INASL were performed in buffer M6. Aliquots of 30 μl or 60 μl containing the phosphopeptide, the phosphatase (-beads) and effectors were incubated for 10 minutes at 30° C. The reaction was stopped by adding 200 μl of a suspension of 10% activated, acid-washed Norit A charcoal (v/v) in 0.9N HCl, 0.1M pyrophosphate and 2 mM NaH2 PO4 (according to Streuli et al., Proc. Natl. Acad. Sci. USA 86: 8698-8702, 1989). The mixture was cleared by 10-minute centrifugation and the radioactivity of 150 μl of the supernate was determined. Assays with MBP and RCML were performed as described in Tonks et al., J. Biol. Chem. 263: 6722-6730, 1988. Protein concentration was determined with BSA as standard (Bradford, Anal. Biochem. 72: 248-254, 1976).

CD45 = molecular target: T2, CD45 (Homo sapiens, UniProt P08575)
T2 construct: CD45 were purified from placenta and spleen, respectively; from tissue; host or cells: spleen
T2 sequence (P08575 26-1306): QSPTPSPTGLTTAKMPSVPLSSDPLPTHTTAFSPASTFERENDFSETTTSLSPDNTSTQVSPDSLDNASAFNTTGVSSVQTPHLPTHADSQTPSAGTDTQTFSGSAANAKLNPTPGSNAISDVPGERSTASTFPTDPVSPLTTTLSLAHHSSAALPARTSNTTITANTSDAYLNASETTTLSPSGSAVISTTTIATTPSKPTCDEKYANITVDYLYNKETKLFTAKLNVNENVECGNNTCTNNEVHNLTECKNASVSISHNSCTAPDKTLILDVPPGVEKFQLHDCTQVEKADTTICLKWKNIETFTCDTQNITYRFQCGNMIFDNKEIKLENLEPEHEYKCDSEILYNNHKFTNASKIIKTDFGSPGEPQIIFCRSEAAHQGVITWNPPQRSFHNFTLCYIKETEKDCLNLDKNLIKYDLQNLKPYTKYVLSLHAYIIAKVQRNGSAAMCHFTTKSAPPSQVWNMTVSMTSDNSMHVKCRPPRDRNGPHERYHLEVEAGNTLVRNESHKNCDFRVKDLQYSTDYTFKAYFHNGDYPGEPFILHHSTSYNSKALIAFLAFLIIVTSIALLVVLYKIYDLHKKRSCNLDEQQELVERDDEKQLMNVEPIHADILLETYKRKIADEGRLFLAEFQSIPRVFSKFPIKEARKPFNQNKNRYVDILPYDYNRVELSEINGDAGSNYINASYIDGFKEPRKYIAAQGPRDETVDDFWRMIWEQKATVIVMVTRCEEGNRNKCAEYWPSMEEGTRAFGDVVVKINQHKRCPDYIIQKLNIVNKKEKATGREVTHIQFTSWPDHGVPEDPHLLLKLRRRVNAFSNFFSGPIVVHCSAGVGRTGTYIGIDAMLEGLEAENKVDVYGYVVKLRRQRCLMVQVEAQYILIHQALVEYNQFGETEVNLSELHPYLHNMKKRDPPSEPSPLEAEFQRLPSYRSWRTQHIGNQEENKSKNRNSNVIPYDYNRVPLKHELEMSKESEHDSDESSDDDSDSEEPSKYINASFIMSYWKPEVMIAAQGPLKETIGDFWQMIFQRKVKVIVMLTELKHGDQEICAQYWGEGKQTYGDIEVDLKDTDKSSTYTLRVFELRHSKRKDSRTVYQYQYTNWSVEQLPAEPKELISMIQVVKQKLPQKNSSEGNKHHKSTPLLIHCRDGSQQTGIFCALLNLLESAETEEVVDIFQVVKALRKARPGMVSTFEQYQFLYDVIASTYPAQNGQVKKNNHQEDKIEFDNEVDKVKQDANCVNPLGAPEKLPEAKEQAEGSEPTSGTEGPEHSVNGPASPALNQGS
Protocol: as §1, §2

PTP1B = molecular target: T3, PTP1B (Homo sapiens, UniProt P18031)
T3 construct: The 37 kDa form of PTP1B; from tissue; host or cells: placenta
T3 sequence (P18031 1-321 limits assumed): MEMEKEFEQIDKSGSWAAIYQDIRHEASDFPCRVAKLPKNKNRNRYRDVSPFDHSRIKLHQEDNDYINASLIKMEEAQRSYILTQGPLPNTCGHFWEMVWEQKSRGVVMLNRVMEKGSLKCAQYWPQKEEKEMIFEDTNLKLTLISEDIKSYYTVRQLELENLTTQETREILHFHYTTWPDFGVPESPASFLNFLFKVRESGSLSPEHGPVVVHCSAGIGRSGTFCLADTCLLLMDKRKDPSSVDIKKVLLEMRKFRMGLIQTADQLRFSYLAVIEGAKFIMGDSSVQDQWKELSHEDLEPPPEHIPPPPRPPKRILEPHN
Protocol: as §1, §2

TC.PTP = molecular target: T4, TC.PTP (Homo sapiens, UniProt P17706); settings: TC.PTP
T4 construct: made in house; host or cells: Sf9 cells (baculovirus)
T4 sequence (P17706 1-415): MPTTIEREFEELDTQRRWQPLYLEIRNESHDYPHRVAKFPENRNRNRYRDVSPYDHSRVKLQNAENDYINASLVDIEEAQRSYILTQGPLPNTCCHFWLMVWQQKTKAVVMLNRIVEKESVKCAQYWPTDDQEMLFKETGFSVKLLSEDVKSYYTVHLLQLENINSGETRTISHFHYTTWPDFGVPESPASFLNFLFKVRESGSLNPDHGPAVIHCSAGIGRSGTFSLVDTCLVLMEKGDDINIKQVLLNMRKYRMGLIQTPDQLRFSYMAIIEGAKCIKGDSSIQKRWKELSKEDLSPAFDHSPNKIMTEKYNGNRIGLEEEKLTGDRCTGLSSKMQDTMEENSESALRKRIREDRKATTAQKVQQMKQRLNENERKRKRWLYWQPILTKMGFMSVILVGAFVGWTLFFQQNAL
Protocol: as §1, §2

RPTPα = molecular target: T5, RPTPα (Homo sapiens, UniProt P18433)
T5 construct: made in house; host or cells: Sf9 cells (baculovirus)
Protocol: as §1, §2

T5 sequence (P18433 20-802): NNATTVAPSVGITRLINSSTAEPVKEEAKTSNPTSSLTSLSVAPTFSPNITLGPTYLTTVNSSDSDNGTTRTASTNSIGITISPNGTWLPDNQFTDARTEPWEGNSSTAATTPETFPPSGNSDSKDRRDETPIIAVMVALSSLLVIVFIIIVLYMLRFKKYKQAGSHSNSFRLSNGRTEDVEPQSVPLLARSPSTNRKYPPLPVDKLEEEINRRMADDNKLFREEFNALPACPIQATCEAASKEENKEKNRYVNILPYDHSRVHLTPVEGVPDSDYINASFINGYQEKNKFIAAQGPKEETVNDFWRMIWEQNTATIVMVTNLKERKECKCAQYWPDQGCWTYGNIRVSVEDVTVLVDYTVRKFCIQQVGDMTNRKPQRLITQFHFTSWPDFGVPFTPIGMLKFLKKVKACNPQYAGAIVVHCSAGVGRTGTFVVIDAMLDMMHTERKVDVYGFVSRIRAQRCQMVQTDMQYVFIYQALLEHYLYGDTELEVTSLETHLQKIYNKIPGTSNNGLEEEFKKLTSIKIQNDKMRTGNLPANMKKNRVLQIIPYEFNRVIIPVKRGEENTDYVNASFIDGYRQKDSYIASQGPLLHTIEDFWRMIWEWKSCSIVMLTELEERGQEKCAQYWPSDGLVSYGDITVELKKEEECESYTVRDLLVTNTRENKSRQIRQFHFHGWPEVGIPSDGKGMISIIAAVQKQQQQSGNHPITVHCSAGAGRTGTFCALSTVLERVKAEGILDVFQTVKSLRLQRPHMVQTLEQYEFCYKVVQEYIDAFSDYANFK

SMILES: CC[C@H](C)[C@H](NC(=O)[C@H](Cc1ccc(O)cc1)NC(=O)[C@H](CC(=O)O)NC(=O)[C@H](CC(N)=O)NC(=O)[C@@H](N)CCC(=O)O)C(=O)N[C@@H](CC(N)=O)C(=O)N[C@@H](C)C(=O)N[C@@H](CO)C(=O)N[C@@H](CC(C)C)C(=O)O (H-ENDYINASL-OH)
- Phosphatase activity in percent of the value obtained in the absence of effectors (TCΔC11.PTP; effector 60 μM): 71%
- Phosphatase activity in percent of the value obtained in the absence of effectors (TCΔC11.PTP; effector 110 μM): 55%
- Phosphatase activity in percent of the value obtained in the absence of effectors (TCΔC11.PTP; effector 210 μM): 46%
- Phosphatase activity in percent of the value obtained in the absence of effectors (CD45; effector 60 μM): 99%
- Phosphatase activity in percent of the value obtained in the absence of effectors (CD45; effector 110 μM): 92%
- Phosphatase activity in percent of the value obtained in the absence of effectors (CD45; effector 210 μM): 83%
- Phosphatase activity in percent of the value obtained in the absence of effectors (PTP1B; effector 60 μM): 94%
- Phosphatase activity in percent of the value obtained in the absence of effectors (PTP1B; effector 110 μM): 84%
- Phosphatase activity in percent of the value obtained in the absence of effectors (PTP1B; effector 210 μM): 58%
- Phosphatase activity in percent of the value obtained in the absence of effectors (TC.PTP; effector 60 μM): 92%
- Phosphatase activity in percent of the value obtained in the absence of effectors (TC.PTP; effector 110 μM): 89%
- Phosphatase activity in percent of the value obtained in the absence of effectors (TC.PTP; effector 210 μM): 79%
- Phosphatase activity in percent of the value obtained in the absence of effectors (RPTPα; effector 60 μM): 76%
- Phosphatase activity in percent of the value obtained in the absence of effectors (RPTPα; effector 110 μM): 54%
- Phosphatase activity in percent of the value obtained in the absence of effectors (RPTPα; effector 210 μM): 30%

SMILES: O=C(O)CN(CCN(CC(=O)O)CC(=O)O)CC(=O)O [EDTA]
- Phosphatase activity in percent of the value obtained in the absence of effectors (TCΔC11.PTP; effector 1.0 mM): 142%
- Phosphatase activity in percent of the value obtained in the absence of effectors (TCΔC11.PTP; effector 3.0 mM): 109%
- Phosphatase activity in percent of the value obtained in the absence of effectors (TCΔC11.PTP; effector 5.0 mM): 93%
- Phosphatase activity in percent of the value obtained in the absence of effectors (CD45; effector 1.0 mM): 96%
- Phosphatase activity in percent of the value obtained in the absence of effectors (CD45; effector 3.0 mM): 78%
- Phosphatase activity in percent of the value obtained in the absence of effectors (CD45; effector 5.0 mM): 76%
- Phosphatase activity in percent of the value obtained in the absence of effectors (PTP1B; effector 1.0 mM): 139%
- Phosphatase activity in percent of the value obtained in the absence of effectors (PTP1B; effector 3.0 mM): 125%
- Phosphatase activity in percent of the value obtained in the absence of effectors (PTP1B; effector 5.0 mM): 110%
- Phosphatase activity in percent of the value obtained in the absence of effectors (TC.PTP; effector 1.0 mM): 119%
- Phosphatase activity in percent of the value obtained in the absence of effectors (TC.PTP; effector 3.0 mM): 104%
- Phosphatase activity in percent of the value obtained in the absence of effectors (TC.PTP; effector 5.0 mM): 80%
- Phosphatase activity in percent of the value obtained in the absence of effectors (RPTPα; effector 1.0 mM): 115%
- Phosphatase activity in percent of the value obtained in the absence of effectors (RPTPα; effector 3.0 mM): 97%
- Phosphatase activity in percent of the value obtained in the absence of effectors (RPTPα; effector 5.0 mM): 86%

SMILES: [Mg+2] [Mg^2+]
- Phosphatase activity in percent of the value obtained in the absence of effectors (TCΔC11.PTP; effector 1.0 mM): 75%
- Phosphatase activity in percent of the value obtained in the absence of effectors (TCΔC11.PTP; effector 3.0 mM): 60%
- Phosphatase activity in percent of the value obtained in the absence of effectors (TCΔC11.PTP; effector 5.0 mM): 58%
- Phosphatase activity in percent of the value obtained in the absence of effectors (CD45; effector 1.0 mM): 80%
- Phosphatase activity in percent of the value obtained in the absence of effectors (CD45; effector 3.0 mM): 62%
- Phosphatase activity in percent of the value obtained in the absence of effectors (CD45; effector 5.0 mM): 72%
- Phosphatase activity in percent of the value obtained in the absence of effectors (PTP1B; effector 1.0 mM): 81%
- Phosphatase activity in percent of the value obtained in the absence of effectors (PTP1B; effector 3.0 mM): 73%
- Phosphatase activity in percent of the value obtained in the absence of effectors (PTP1B; effector 5.0 mM): 71%
- Phosphatase activity in percent of the value obtained in the absence of effectors (TC.PTP; effector 1.0 mM): 72%
- Phosphatase activity in percent of the value obtained in the absence of effectors (TC.PTP; effector 3.0 mM): 57%
- Phosphatase activity in percent of the value obtained in the absence of effectors (TC.PTP; effector 5.0 mM): 60%
- Phosphatase activity in percent of the value obtained in the absence of effectors (RPTPα; effector 1.0 mM): 90%
- Phosphatase activity in percent of the value obtained in the absence of effectors (RPTPα; effector 3.0 mM): 72%
- Phosphatase activity in percent of the value obtained in the absence of effectors (RPTPα; effector 5.0 mM): 59%

SMILES: [O]=[V]([O-])([O-])[O-] [vanadate]
- Phosphatase activity in percent of the value obtained in the absence of effectors (CD45; effector 1.0 μM): 66%
- Phosphatase activity in percent of the value obtained in the absence of effectors (CD45; effector 10 μM): 17%
- Phosphatase activity in percent of the value obtained in the absence of effectors (CD45; effector 100 μM): 4%
- Phosphatase activity in percent of the value obtained in the absence of effectors (RPTPα; effector 1.0 μM): 62%
- Phosphatase activity in percent of the value obtained in the absence of effectors (RPTPα; effector 10 μM): 4%
- Phosphatase activity in percent of the value obtained in the absence of effectors (RPTPα; effector 100 μM): 0%

— patent publication US5739278A, “Compositions for protein tyrosine phosphatases” (University of Washington, priority 1995, dated 1998)
